# In ChEMBL document CHEMBL1201862, “PubChem BioAssay data set” (2004):
# Activity calls are given as the source filed them. Cut-off read from the data, not from the text of the source, for most assays here: actives have a measured EC50 and inactives only a lower limit.
# Legend:
# [1] = target: T1, Rac GTPase-activating protein 1 (Homo sapiens, UniProt Q9H0H5); assay: MgcRacGAP GTPase-activating activity inhibitors, confirmation, biochemical, ADP Hunter fluorescence, primary and confirmatory (AID 624330); type: functional
# T1 sequence (Q9H0H5 whole entry): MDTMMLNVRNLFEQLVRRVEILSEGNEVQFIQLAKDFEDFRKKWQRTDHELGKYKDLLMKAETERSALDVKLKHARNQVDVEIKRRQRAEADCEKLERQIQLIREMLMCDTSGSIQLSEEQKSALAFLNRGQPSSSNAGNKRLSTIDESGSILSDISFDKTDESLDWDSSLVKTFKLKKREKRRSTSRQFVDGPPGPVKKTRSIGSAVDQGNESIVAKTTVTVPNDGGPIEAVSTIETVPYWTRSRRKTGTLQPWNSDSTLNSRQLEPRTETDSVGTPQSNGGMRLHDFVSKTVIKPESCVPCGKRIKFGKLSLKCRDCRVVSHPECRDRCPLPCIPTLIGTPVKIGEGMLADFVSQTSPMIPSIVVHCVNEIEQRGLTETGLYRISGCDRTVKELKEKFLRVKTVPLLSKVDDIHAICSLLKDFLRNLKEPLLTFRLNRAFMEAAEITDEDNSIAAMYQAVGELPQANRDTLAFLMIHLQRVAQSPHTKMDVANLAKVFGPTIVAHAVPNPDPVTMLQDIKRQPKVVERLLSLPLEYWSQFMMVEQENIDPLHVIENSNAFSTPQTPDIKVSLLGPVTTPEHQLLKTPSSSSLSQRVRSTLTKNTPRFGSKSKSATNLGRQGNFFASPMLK
# [2] = C. albicans growth with fluconazole, confirmation, fluorescence, retest (AID 2467); type: functional, cell-based
# [3] = Luminescence Cell-Based Dose Retest to Confirm Inhibitors of Cancer Stem Cells. [Related pubchem assays (depositor defined):AID2717, AID2721]; type: functional; conditions: Homo sapiens
# [4] = NIH-3T3 fibroblast cytotoxicity, dose response, cytotoxicity control, cell-based, fluorescence, Alamar Blue, secondary assay (AID 2327); type: functional;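 note: NIH-3T3 mouse fibroblasts cultured with fluconazole at 8 µg/mL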
# cells [5] = type: functional, cell-based
# cells [6] = type: functional, cell-based; remark: listed apart in the source
# [7] = target: T2, Corticotropin-releasing factor receptor 2/Corticotropin-releasing factor-binding protein (Homo sapiens, UniProt P24387+Q13324); assay: activators of CRF receptor 2 with binding protein – uHTS hits, confirmation (AID 602473); type: functional; conditions: read-out: EC50_Mean
# T2 sequence (Q13324 whole entry): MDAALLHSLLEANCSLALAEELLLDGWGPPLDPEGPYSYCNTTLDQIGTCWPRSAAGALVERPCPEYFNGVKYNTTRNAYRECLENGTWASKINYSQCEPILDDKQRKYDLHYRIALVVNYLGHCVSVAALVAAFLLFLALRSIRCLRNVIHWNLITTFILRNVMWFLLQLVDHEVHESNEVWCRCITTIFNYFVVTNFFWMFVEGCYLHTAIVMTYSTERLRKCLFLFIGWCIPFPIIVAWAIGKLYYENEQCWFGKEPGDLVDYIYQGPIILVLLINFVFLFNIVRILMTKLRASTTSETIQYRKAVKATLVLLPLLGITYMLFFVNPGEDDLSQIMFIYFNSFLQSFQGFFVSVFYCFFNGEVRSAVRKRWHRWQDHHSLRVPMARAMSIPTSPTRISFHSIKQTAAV
# T2 sequence (P24387 whole entry): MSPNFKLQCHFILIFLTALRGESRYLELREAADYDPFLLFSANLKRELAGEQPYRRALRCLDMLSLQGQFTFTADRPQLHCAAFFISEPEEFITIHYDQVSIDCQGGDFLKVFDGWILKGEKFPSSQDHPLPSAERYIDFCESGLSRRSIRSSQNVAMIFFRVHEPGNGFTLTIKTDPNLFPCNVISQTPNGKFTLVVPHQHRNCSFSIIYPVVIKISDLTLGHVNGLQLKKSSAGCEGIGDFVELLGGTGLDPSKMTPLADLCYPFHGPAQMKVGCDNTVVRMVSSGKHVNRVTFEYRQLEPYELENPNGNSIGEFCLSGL
# [8] = target: T2, Corticotropin-releasing factor receptor 2/Corticotropin-releasing factor-binding protein; assay: Dose Response confirmation of uHTS hits for small molecule antagonists of the CRF-binding protein and CRF-R2 receptor complex.; type: functional; conditions: read-out: IC50_Mean
# INS1 = assay: beta cell apoptosis inhibitors, cytokine rescue, dose response, luminescence, retest (AID 449756); type: functional, cell-based; conditions: Rattus norvegicus;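 note: cell death triggered by IL-1 beta plus TNF-alpha plus IFN-gamma mixture; protective hits raise ATP signal compared with cytokine alone wells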
# [9] = cytotoxicity toward NIH3T3 fibroblasts, dose response, counter-screen, cell-based, ATP luminescence, mouse fibroblasts (AID 2010); type: functional;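 note: cells exposed to compound for about 90 hours before reading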
# [10] = inhibitors of intracellular T. cruzi replication, confirmation, NIH3T3 host cells, beta-gal luminescence (AID 2044); type: functional, cell-based;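 note: intracellular parasites grown in NIH/3T3 mouse fibroblasts as host cells; luminescent beta-galactosidase reporter signal from transgenic T. cruzi replicating inside host cells; inhibitors lower the luminescence signal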
# [11] = control 3'UTR Renilla luciferase suppression, dose response, counter-screen for Shn3 inhibitor project, cell-based, Clone20-Shn3RL, cherry-picked (AID 624133); type: functional
# [12] = Shn3 3'UTR reporter inhibitors, dose response, cell-based, Clone20 osteoblasts, firefly luciferase, cherry-picked (AID 624132); type: functional;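 note: firefly luciferase luminescence from reporter carrying the Shn3 3'UTR in osteoblasts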
# Protein RecA = target: T3, Protein RecA (Mycobacterium tuberculosis, UniProt P9WHJ3); assay: Fluorescence Cell-Free Homogeneous Dose Retest to Identify Inhibitors of RecA-Intein Splicing Activity. [Related pubchem assays (depositor defined):AID2097, AID2223, AID489010, AID492950]; type: functional
# T3 sequence (P9WHJ3 whole entry): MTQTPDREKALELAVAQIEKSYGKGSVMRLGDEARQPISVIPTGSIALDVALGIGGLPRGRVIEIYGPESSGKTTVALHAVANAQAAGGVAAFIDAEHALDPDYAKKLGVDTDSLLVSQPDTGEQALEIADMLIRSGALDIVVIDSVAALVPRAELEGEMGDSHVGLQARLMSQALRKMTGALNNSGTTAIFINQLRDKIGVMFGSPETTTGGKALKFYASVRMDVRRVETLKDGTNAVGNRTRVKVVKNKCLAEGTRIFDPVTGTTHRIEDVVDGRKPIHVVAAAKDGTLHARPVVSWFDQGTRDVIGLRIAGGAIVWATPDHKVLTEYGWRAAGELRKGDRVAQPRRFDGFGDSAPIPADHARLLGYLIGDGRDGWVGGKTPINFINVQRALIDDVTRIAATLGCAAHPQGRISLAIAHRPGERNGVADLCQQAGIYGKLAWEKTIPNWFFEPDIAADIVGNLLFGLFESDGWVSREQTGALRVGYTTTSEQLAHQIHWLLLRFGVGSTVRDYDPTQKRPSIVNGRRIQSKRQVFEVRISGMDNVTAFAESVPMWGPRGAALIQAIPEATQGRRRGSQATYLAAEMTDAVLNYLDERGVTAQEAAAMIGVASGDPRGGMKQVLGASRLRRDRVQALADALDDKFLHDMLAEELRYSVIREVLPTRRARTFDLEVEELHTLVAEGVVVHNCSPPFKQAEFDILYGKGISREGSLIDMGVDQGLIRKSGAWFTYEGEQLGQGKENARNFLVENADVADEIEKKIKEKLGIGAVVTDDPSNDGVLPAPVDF
# [13] = target: T4, Replicative DNA helicase DnaB (Mycobacterium tuberculosis, UniProt P9WMR3); assay: DnaB intein splicing inhibitors, dose response, biochemical, cell-free fluorescence (AID 449749); type: functional
# T4 sequence (P9WMR3 whole entry): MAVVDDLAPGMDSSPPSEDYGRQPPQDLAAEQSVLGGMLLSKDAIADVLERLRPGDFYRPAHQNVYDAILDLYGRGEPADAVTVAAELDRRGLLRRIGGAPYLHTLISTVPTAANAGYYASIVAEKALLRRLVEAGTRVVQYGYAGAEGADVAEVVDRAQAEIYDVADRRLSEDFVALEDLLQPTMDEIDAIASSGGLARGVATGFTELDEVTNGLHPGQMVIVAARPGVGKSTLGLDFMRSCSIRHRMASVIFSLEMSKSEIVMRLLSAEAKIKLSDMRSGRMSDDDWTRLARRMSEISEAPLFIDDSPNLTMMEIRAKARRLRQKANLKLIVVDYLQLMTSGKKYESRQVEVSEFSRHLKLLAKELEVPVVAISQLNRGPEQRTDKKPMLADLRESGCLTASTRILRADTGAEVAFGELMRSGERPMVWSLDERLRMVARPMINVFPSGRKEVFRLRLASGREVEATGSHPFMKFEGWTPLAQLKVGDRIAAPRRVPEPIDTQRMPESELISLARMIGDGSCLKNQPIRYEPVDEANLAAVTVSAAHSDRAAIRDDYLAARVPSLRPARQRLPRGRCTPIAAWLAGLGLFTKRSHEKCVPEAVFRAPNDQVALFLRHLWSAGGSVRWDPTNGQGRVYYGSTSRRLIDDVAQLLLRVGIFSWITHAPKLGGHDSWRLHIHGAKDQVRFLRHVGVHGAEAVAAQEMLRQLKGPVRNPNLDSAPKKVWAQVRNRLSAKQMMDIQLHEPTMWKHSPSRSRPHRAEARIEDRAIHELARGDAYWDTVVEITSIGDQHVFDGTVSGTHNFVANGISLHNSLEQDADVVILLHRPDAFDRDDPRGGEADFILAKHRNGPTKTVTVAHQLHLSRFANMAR
smiles,measurement,setting,value
c1ccc(CNC23CC4CC(CC(C4)C2)C3)nc1,IC50,[1],110 µM (active)
O=C(NNC(=O)c1cc(Cl)ccc1O)c1ccc(NS(=O)(=O)c2cccs2)cc1,EC50,[2],> 38 µM (not active)
same,AC50,[3],9 µM (active)
same,EC50,[4],> 160 µM (inactive)
CCOCCCN=C(S)Nc1cc(C)cc(C)c1,EC50,cells [5],> 350 µM (not active)
same,EC50,cells [6],> 350 µM (not active)
CSCc1ccc(C(=O)N2CCCC(Nc3ccc4c(c3)OCCO4)C2)o1 (stereo not given),IC50,[1],152 µM (active)
COc1ccccc1S(=O)(=O)Cc1ccc(C(=O)NCc2ccccc2)o1,EC50,[7],> 53 µM (inactive)
same,IC50,[8],> 47.1 µM (inactive)
CCCCC(=O)N1C/C=C\C(c2ccc(OC)cc2)N(Cc2ccc(F)cc2)C(=O)[C@H]1Cc1ccccc1 (stereo not given in full),AC50,INS1,8.17 µM (active)
same,EC50,[9],> 60 µM (not active)
same,EC50,[10],1.99 µM (active)
O=C(NCc1ccccn1)c1cc(-c2ccc(Cl)cc2)oc1C(F)(F)F,AC50,INS1,> 260 µM (inactive)
Cc1cc(CN2CCOCC2)c(O)c(C2(C)CCCCC2)c1,AC50,[11],32.1 µM (active)
same,AC50,[12],32.3 µM (active)
Cn1c(SCC(=O)N2CCCc3ccccc32)nc2cccnc21,EC50,[7],> 53 µM (inactive)
same,IC50,[8],> 47.1 µM (inactive)
N#CC1=C(S)N(c2ccccc2)C(c2ccc(-c3ccccc3Cl)o2)NC1=O (stereo not given),IC50,[1],99.8 µM (active)
O=C(Nc1ccc(-n2cnnn2)cc1)c1cn2ccccc2n1,EC50,[7],> 53 µM (inactive)
N#CC1(NC(=O)COC(=O)c2cc(O)c3ccccc3c2O)CCCCC1,EC50,Protein RecA,4.28 µM (active)
same,AC50,[3],6.49 µM (active)
same,AC50,[13],4.37 µM (active)
CCCN(CCC)C(C)C(=O)NCC1(c2ccccc2)CCCC1 (stereo not given),EC50,cells [5],> 350 µM (not active)
same,EC50,cells [6],45.6 µM (active)
Cc1cccnc1NC(=O)C(C)Oc1ccccc1 (stereo not given),EC50,[7],> 53 µM (inactive)
same,IC50,[8],> 47.1 µM (inactive)
O=C(CSc1ccc(-c2ccccn2)nn1)Nc1nccs1,EC50,cells [5],> 350 µM (not active)
same,EC50,cells [6],> 350 µM (not active)
Cc1ccc(C)c(S(=O)(=O)N2CCN(CC(=O)N3CCc4ccccc4C3)CC2)c1,IC50,[1],93 µM (active)
COc1ccccc1NC(=O)C1CCN(C(=O)c2ccc(C(C)(C)C)cc2)CC1,EC50,cells [5],> 350 µM (not active)
same,EC50,cells [6],> 350 µM (not active)
CCCCn1c(N)c(N(CC)C(=O)c2cc(OC)cc(OC)c2)c(=O)[nH]c1=O,EC50,cells [5],> 350 µM (not active)
same,EC50,cells [6],> 350 µM (not active)
COc1ccc(CNC(=O)[C@H](C)NC(=O)C2CCN(S(=O)(=O)c3ccc(F)cc3)CC2)cc1,EC50,[7],> 53 µM (inactive)
same,IC50,[8],> 47.1 µM (inactive)
Cc1occc1C(=O)NC(C)C12CC3CC(CC(C3)C1)C2 (stereo not given),EC50,[7],> 53 µM (inactive)
same,IC50,[8],> 47.1 µM (inactive)
CSc1ccc(S(=O)(=O)NCC(=O)OCC(=O)N(Cc2ccccc2)C(C)C)cc1[N+](=O)[O-],EC50,[7],> 53 µM (inactive)
same,IC50,[8],> 47.1 µM (inactive)
COc1ccc(NC2CCCN(C(=O)c3ccc(C)nc3)C2)cc1 (stereo not given),IC50,[1],161 µM (active)
CCc1ccc(Nc2nnc(SC(C)C(=O)NC3CC3)s2)cc1 (stereo not given),EC50,[7],> 53 µM (inactive)
same,IC50,[8],> 47.1 µM (inactive)
O=C(CN1c2cccc3cccc(c23)S1(=O)=O)NC1CCCCC1,EC50,[7],> 53 µM (inactive)
same,IC50,[8],> 47.1 µM (inactive)
CC(/C=N/Nc1nc(C)cc(C)n1)=C\c1ccc(C(C)C)cc1,EC50,[7],> 53 µM (inactive)
same,IC50,[8],> 47.1 µM (inactive)
COc1cc(/C=N/N2C(=O)c3ccccc3C2=O)ccc1O,IC50,[1],50.2 µM (active)
S=C(N/N=C/c1cccc2ccccc12)Nc1cccc(Cl)c1,EC50,cells [5],> 350 µM (not active)
same,EC50,cells [6],> 350 µM (not active)
O=C1ON=C(c2ccccc2)/C1=C/c1ccco1,IC50,[1],91 µM (active)
